Source: article PMC7818652 (ACS Catalysis, 2020)

How the values were obtained:
Experiment in all cases: steady-state kinetics, DCIP reduction (spectrophotometric)
Format in all cases: biochemical, Neurospora crassa
Conditions in all cases: 2,6-dichloroindophenol as saturating co-substrate; pH 6.0 citrate-phosphate; 30 °C
CDHAAB = tested on: T1, CDHAAB
T1 construct: gene cdhIIB; single fused chain: CYT and linker of NcCDHIIA + DH of NcCDHIIB, no CBM1; expressed in Pichia pastoris KM71H; with Cellobiose dehydrogenase
Excerpt: steady-state kinetics, DCIP reduction (spectrophotometric) on CDHAAB

CDHBAA = tested on: T2, CDHBAA
T2 construct: gene cdhIIA; single fused chain: CYT of NcCDHIIB + linker, DH and CBM1 of NcCDHIIA; expressed in Pichia pastoris KM71H; with Cellobiose dehydrogenase
Excerpt: steady-state kinetics, DCIP reduction (spectrophotometric) on CDHBAA

CDHBBA = tested on: T3, CDHBBA
T3 construct: gene cdhIIA; single fused chain: CYT and linker of NcCDHIIB + DH and CBM1 of NcCDHIIA; expressed in Pichia pastoris KM71H; with Cellobiose dehydrogenase
Excerpt: steady-state kinetics, DCIP reduction (spectrophotometric) on CDHBBA

CDHABB = tested on: T4, CDHABB
T4 construct: gene cdhIIB; single fused chain: CYT of NcCDHIIA + linker and DH of NcCDHIIB, no CBM1; expressed in Pichia pastoris KM71H; with Cellobiose dehydrogenase
Excerpt: steady-state kinetics, DCIP reduction (spectrophotometric) on CDHABB

Km (CDHAAB): 46 ± 3 µM | Km (CDHBAA): 57 ± 6 µM | Km (CDHBBA): 75 ± 5 µM | Km (CDHABB): 26 ± 3 µM
Compound: OC[C@H]1O[C@@H](O[C@H]2[C@H](O)[C@@H](O)C(O)O[C@@H]2CO)[C@H](O)[C@@H](O)[C@@H]1O (stereo partly shown) [cellobiose]
